Experiment [1] relates to rat adrenal medulla melanocytoma PC-12. It is filed as cell-based.
In the next experiment the test system is rabbit skin. It is filed as in vivo.
Experiment [2] addresses maxadilan receptor in crude membrane fraction from the rabbit spleen. Briefly: Binding test (tissue): 125I-Max, rabbit spleen crude membrane fraction. The settings on record: read-out: dissociation constant (Kd). The procedure: (§1) Likewise, crude membrane fractions were prepared, respectively, from the brain, liver, pancreas, spleen, aorta and kidney of a rabbit, and the brains of a rat, a mouse, cattle and a human being.
(§2) After completion of the reaction, ^125I-Max bound to the membrane was separated by subjecting the resultant incubation matter to suction filtration using a GF/C glass filter (Whatman GF/C), and the radioactivity of the glass filter after being dried was measured by a γ-counter.

A further experiment deals with NBf1 cell. As to the kind of experiment: cAMP production in NBf1 cell. It is filed as cell-based, human.
For experiment [3], the system named is rat pancreas smooth muscle MILE cell. Briefly: cAMP production in MILE cell. The format is cell-based.
For experiment [4], the target named is T1, maxadilan receptor in crude membrane fraction from the brain of a human being (Homo sapiens, UniProt P41586).
T1 construct: Likewise, crude membrane fractions were prepared; from tissue; host or cells: human brain, crude membrane fraction
T1 sequence (P41586 21-468): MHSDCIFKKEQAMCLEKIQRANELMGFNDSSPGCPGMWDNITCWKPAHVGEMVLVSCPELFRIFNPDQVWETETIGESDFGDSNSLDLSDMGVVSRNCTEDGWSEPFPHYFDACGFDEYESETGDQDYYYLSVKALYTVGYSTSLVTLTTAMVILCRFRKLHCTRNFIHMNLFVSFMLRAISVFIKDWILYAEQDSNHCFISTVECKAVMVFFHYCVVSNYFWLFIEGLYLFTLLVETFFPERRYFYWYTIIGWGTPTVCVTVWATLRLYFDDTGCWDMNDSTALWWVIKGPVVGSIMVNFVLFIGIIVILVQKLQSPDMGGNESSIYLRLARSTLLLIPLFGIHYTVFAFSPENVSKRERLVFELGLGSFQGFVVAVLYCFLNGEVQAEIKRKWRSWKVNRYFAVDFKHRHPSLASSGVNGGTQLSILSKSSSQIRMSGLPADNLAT
Briefly: Binding test (tissue): 125I-Max, human brain crude membrane fraction. The procedure:
as §1, §2

For experiment [5], the target named is T2, maxadilan receptor in crude membrane fraction from the mouse brain (Mus musculus, UniProt P70205).
T2 construct: Likewise, crude membrane fractions were prepared; from tissue; host or cells: mouse brain, crude membrane fraction
T2 sequence (P70205 21-496): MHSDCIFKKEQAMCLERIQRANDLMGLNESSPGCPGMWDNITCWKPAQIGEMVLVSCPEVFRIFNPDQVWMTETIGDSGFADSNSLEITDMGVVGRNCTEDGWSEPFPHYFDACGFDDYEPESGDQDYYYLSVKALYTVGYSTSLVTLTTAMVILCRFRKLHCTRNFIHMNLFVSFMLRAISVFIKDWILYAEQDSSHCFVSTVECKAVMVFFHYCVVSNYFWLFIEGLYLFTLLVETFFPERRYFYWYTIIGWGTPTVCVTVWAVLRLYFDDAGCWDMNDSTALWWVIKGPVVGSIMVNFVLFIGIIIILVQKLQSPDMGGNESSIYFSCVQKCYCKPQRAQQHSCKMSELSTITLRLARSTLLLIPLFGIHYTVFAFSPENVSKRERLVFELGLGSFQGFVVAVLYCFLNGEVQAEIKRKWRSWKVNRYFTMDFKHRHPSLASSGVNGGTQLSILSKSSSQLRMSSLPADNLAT
As to the kind of experiment: Binding test (tissue): 125I-Max, mouse brain crude membrane fraction. The procedure:
as §1, §2

In experiment [6] the target is T3, maxadilan receptor in crude membrane fraction from the rat brain (Rattus norvegicus, UniProt P32215).
T3 construct: Likewise, crude membrane fractions were prepared; from tissue; host or cells: rat brain, crude membrane fraction
T3 sequence (P32215 20-523): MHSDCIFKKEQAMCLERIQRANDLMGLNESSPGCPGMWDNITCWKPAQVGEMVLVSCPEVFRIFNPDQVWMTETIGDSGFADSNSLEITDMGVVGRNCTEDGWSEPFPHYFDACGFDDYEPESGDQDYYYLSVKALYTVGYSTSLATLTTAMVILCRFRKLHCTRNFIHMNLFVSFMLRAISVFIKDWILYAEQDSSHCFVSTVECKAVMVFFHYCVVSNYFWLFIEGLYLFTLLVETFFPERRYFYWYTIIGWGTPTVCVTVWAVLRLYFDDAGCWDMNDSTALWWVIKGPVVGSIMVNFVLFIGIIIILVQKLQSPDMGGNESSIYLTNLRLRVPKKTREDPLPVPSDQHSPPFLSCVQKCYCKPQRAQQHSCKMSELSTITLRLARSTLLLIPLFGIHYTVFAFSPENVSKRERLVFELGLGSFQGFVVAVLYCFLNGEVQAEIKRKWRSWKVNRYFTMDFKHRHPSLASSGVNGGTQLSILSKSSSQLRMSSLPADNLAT
As to the kind of experiment: Binding test (tissue): 125I-Max, rat brain crude membrane fraction. As for the experimental part: as §1, §2

For experiment [7], the target named is T4, maxadilan receptor in crude membrane fraction from the cattle brain (Bos taurus, UniProt Q29627).
T4 construct: Likewise, crude membrane fractions were prepared; from tissue; host or cells: cattle brain, crude membrane fraction
T4 sequence (Q29627 38-513): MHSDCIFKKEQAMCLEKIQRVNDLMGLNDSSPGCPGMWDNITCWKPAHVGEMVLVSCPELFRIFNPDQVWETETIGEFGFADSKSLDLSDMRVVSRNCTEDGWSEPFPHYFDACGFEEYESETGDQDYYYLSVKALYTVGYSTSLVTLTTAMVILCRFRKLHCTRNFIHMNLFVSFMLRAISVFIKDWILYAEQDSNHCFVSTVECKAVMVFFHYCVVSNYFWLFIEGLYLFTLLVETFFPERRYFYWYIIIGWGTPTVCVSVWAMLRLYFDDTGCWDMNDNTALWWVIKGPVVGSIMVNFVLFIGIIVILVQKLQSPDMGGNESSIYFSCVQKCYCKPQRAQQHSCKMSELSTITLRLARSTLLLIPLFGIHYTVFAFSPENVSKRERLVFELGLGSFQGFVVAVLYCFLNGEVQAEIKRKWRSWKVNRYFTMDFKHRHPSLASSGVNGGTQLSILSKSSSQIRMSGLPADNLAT
As to the kind of experiment: Binding test (tissue): 125I-Max, cattle brain crude membrane fraction. As for the experimental part:
as §1, §2

pKd: −log10 of the molar value.

A word on the pKd: it is the Kd on a negative log10 scale, so that one unit is a factor of ten. Take maxadilan: the cAMP production entry in experiment [1] (PC-12 cell (1×10^6), 37° C. 10 minutes) is given as “significantly promotes cAMP production”; with NBf1 cell, “likewise observed”; in experiment [3], “likewise observed”. Also, the “time course of cAMP production after stimulation” value in experiment [1] (PC-12 cell, 100 nM maxadilan, 37° C., various time) is recorded as “conducted in an instant”. Moreover, the Erythema formation activity in the experiment on rabbit skin (50 μl dilutions at various concentrations intracutaneously into white rabbits, observed 30 minutes and 2 hours after injection) was 10^−12. Also, in the experiment with rabbit skin (intracutaneous injection, rabbit), the “erythema formation action (in words)” value was “superior to that of natural maxadilan”. The pKd in experiment [2] was 10.26. Also, the “specific binding to crude membrane fraction” value in [4] and in experiment [7] was “specific binding of Max is also recognized” throughout. Moreover, the “maximum binding amount (Bmax)” value in [5] came out at 53 fmol/mg; in [6] it was 68 fmol/mg; in [7], 17 fmol/mg.
